# Assay results as given in patent US6737383B1, “Herbicidal oxadiazolidines” (priority 1999, dated 2004).
# Experiments:
# wild oat = assay: Test B pre/postemergence wild oat; type: in vivo, Avena fatua
# How it was run: (§1)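 Test chemicals in a non-phytotoxic solvent mixture with surfactant were sprayed preemergence onto planted seeds and postemergence onto plants 2 to 18 cm tall (1- to 4-leaf stage). After twelve to sixteen days in a greenhouse, injury was visually rated against untreated controls from 0 (no effect) to 10 (complete control).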
# wheat = assay: Test B pre/postemergence wheat; type: in vivo, Triticum aestivum
# Description: (§2) Seeds of bedstraw (Galium aparine), blackgrass (Alopecurus myosuroides), surinam grass (Brachiaria decumbens), cocklebur (Xanthium strumarium), corn (Zea mays), crabgrass (Digitaria sanguinalis), giant foxtail (Setaria faberii), morningglory (Ipomoea hederacea), pigweed (Amaranthus retroflexus), rape (Brassica napus), soybean (Glycine max), sugar beet (Beta vulgaris), velvetleaf (Abutilon theophrasti), wheat (Triticum aestivum), wild oat (Avena fatua) and purple nutsedge (Cyperus rotundus) tubers were planted and treated preemnergence with test chemicals formulated in a non-phytotoxic solvent mixture which included a surfactant.
# (§3) At the same time, these crop and weed species were also treated with postemergence applications of test chemicals formulated in the same manner. Plants ranged in height from 2 to 18 cm (1- to 4-leaf stage) for postemergence treatments. Plant species in the flood test consisted of rice (Oryza sativa), smallflower flatsedge (Cyperus difformis), duck salad (Heteranthera limosa) and bamyardgrass (Echinochloa crus-galli) grown to the 2-leaf stage for testing. Treated plants and controls were maintained in a greenhouse for twelve to sixteen days, after which all species were compared to controls and visually evaluated. Plant response ratings, summarized in Table B, are based on a scale of 0 to 10 where 0 is no effect and 10 is complete control. A dash (−) response means no test result.
# cocklebur = assay: Test B pre/postemergence cocklebur; type: in vivo, Xanthium strumarium
# Description: as §2, §3
# morningglory = assay: Test B pre/postemergence morningglory; type: in vivo, Ipomoea hederacea
# Description: as §2, §3
# sugar beet = assay: Test B pre/postemergence sugar beet; type: in vivo, Beta vulgaris
# How it was run: as §1
# bedstraw = assay: Test B pre/postemergence bedstraw; type: in vivo, Galium aparine
# How it was run: as §1
# pigweed = assay: Test B pre/postemergence pigweed; type: in vivo, Amaranthus retroflexus
# Description: as §2, §3
# corn = assay: Test B pre/postemergence corn; type: in vivo, Zea mays
# How it was run: as §1
# purple nutsedge = assay: Test B pre/postemergence purple nutsedge; type: in vivo, Cyperus rotundus
# Description: as §2, §3
# crabgrass = assay: Test B pre/postemergence crabgrass; type: in vivo, Digitaria sanguinalis
# Description: as §2, §3
# soybean = assay: Test B pre/postemergence soybean; type: in vivo, Glycine max
# Description: as §2, §3
# giant foxtail = assay: Test B pre/postemergence giant foxtail; type: in vivo, Setaria faberii
# How it was run: as §1
# rape = assay: Test B pre/postemergence rape; type: in vivo, Brassica napus
# How it was run: as §1
# blackgrass = assay: Test B pre/postemergence blackgrass; type: in vivo, Alopecurus myosuroides
# Description: as §2, §3
# velvetleaf = assay: Test B pre/postemergence velvetleaf; type: in vivo, Abutilon theophrasti
# How it was run: as §1
# surinam grass = assay: Test B pre/postemergence surinam grass; type: in vivo, Brachiaria decumbens
# Description: as §2, §3
# [1] = Postemergence, Rate 31 g/ha, visual rating, scale 0 to 10 (0 no effect, 10 complete control)
# [2] = Postemergence, Rate 125 g/ha, scale 0 to 10, 0 is no effect, 10 is complete control
# [3] = Postemergence, Rate 250 g/ha, scale 0 to 10, 0 is no effect, 10 is complete control
# [4] = Preemergence, Rate 62 g/ha, scale 0 to 10 (0 no effect, 10 complete control)
# [5] = Preemergence, Rate 250 g/ha, scale of 0 to 10 where 0 is no effect and 10 is complete control
# [6] = Rate 62 g/ha, Postemergence, scale of 0 to 10 where 0 is no effect and 10 is complete control
# [7] = Preemergence, Rate 31 g/ha, visual rating, scale 0 to 10 (0 no effect, 10 complete control)
smiles,measurement,setting,value
CC(C)N(C(=O)n1oc(=O)n(C2(C)CC2)c1=O)c1ccc(F)cc1 [Compound 362],Wild oats plant response rating,wild oat; [1],0
same,"Plant response rating, Wild oats",wild oat; [2],6
same,"Plant response rating, Wild oats",wild oat; [3],6
same,"Plant response rating, Wild oats",wild oat; [4],7
same,Wild oats plant response rating (0 to 10 scale),"wild oat; Preemergence, Rate 125 g/ha",10
same,Wild oats plant response rating,wild oat; [5],10
same,Wild oats plant response rating,wild oat; [6],3
same,Wheat plant response rating,wheat; [1],0
same,"Plant response rating, Wheat",wheat; [2],4
same,"Plant response rating, Wheat",wheat; [3],6
same,"Plant response rating, Wheat",wheat; [4],7
same,Wheat plant response rating (0 to 10 scale),"wheat; Preemergence, Rate 125 g/ha",8
same,Wheat plant response rating,wheat; [5],8
same,Wheat plant response rating,wheat; [6],2
same,Cocklebur plant response rating,cocklebur; [1],0
same,"Plant response rating, Cocklebur",cocklebur; [2],0
same,Cocklebur plant response rating,cocklebur; [7],0
same,"Plant response rating, Cocklebur",cocklebur; [4],0
same,Cocklebur plant response rating (0 to 10 scale),"cocklebur; Preemergence, Rate 125 g/ha",0
same,Cocklebur plant response rating,cocklebur; [5],0
same,Cocklebur plant response rating,cocklebur; [6],0
same,Morningglory plant response rating,morningglory; [1],0
same,"Plant response rating, Morningglory",morningglory; [2],1
same,"Plant response rating, Morningglory",morningglory; [3],1
same,"Plant response rating, Morningglory",morningglory; [4],0
same,Morningglory plant response rating (0 to 10 scale),"morningglory; Preemergence, Rate 125 g/ha",4
same,Morningglory plant response rating,morningglory; [5],6
same,Morningglory plant response rating,morningglory; [6],1
same,Sugarbeets plant response rating,sugar beet; [1],0
same,"Plant response rating, Sugarbeets",sugar beet; [2],0
same,"Plant response rating, Sugarbeets",sugar beet; [3],2
same,"Plant response rating, Sugarbeets",sugar beet; [4],5
same,Sugarbeets plant response rating (0 to 10 scale),"sugar beet; Preemergence, Rate 125 g/ha",7
same,Sugarbeets plant response rating,sugar beet; [5],8
same,Sugarbeets plant response rating,sugar beet; [6],0
same,Bedstraw plant response rating,bedstraw; [1],5
same,"Plant response rating, Bedstraw",bedstraw; [2],9
same,"Plant response rating, Bedstraw",bedstraw; [3],9
same,Bedstraw plant response rating,bedstraw; [7],8
same,"Plant response rating, Bedstraw",bedstraw; [4],9
same,Bedstraw plant response rating (0 to 10 scale),"bedstraw; Preemergence, Rate 125 g/ha",9
same,Bedstraw plant response rating,bedstraw; [5],10
same,Bedstraw plant response rating,bedstraw; [6],5
same,Redroot pigweed plant response rating,pigweed; [1],0
same,"Plant response rating, Redroot pigweed",pigweed; [2],4
same,"Plant response rating, Redroot pigweed",pigweed; [3],6
same,"Plant response rating, Redroot pigweed",pigweed; [4],8
same,Redroot pigweed plant response rating (0 to 10 scale),"pigweed; Preemergence, Rate 125 g/ha",10
same,Redroot pigweed plant response rating,pigweed; [5],10
same,Redroot pigweed plant response rating,pigweed; [6],2
same,Corn plant response rating,corn; [1],0
same,"Plant response rating, Corn",corn; [2],0
same,"Plant response rating, Corn",corn; [3],0
same,Corn plant response rating,corn; [7],0
same,"Plant response rating, Corn",corn; [4],0
same,Corn plant response rating (0 to 10 scale),"corn; Preemergence, Rate 125 g/ha",3
same,Corn plant response rating,corn; [5],9
same,Corn plant response rating,corn; [6],0
same,Nutsedge plant response rating,purple nutsedge; [1],0
same,"Plant response rating, Nutsedge",purple nutsedge; [2],0
same,"Plant response rating, Nutsedge",purple nutsedge; [3],0
same,"Plant response rating, Nutsedge",purple nutsedge; [4],0
same,Nutsedge plant response rating (0 to 10 scale),"purple nutsedge; Preemergence, Rate 125 g/ha",0
same,Nutsedge plant response rating,purple nutsedge; [5],3
same,Nutsedge plant response rating,purple nutsedge; [6],0
same,Crabgrass plant response rating,crabgrass; [1],3
same,"Plant response rating, Crabgrass",crabgrass; [2],6
same,"Plant response rating, Crabgrass",crabgrass; [3],6
same,"Plant response rating, Crabgrass",crabgrass; [4],5
same,Crabgrass plant response rating (0 to 10 scale),"crabgrass; Preemergence, Rate 125 g/ha",8
same,Crabgrass plant response rating,crabgrass; [5],8
same,Crabgrass plant response rating,crabgrass; [6],3
same,Soybean plant response rating,soybean; [1],4
same,"Plant response rating, Soybean",soybean; [2],5
same,"Plant response rating, Soybean",soybean; [3],6
same,"Plant response rating, Soybean",soybean; [4],0
same,Soybean plant response rating (0 to 10 scale),"soybean; Preemergence, Rate 125 g/ha",1
same,Soybean plant response rating,soybean; [5],6
same,Soybean plant response rating,soybean; [6],4
same,Giant foxtail plant response rating,giant foxtail; [1],5
same,"Plant response rating, Giant foxtail",giant foxtail; [2],8
same,"Plant response rating, Giant foxtail",giant foxtail; [3],9
same,"Plant response rating, Giant foxtail",giant foxtail; [4],10
same,Giant foxtail plant response rating (0 to 10 scale),"giant foxtail; Preemergence, Rate 125 g/ha",10
same,Giant foxtail plant response rating,giant foxtail; [5],10
same,Giant foxtail plant response rating,giant foxtail; [6],6
same,Rape plant response rating,rape; [1],0
same,"Plant response rating, Rape",rape; [2],0
same,"Plant response rating, Rape",rape; [3],0
same,"Plant response rating, Rape",rape; [4],0
same,Rape plant response rating (0 to 10 scale),"rape; Preemergence, Rate 125 g/ha",3
same,Rape plant response rating,rape; [5],6
same,Rape plant response rating,rape; [6],0
same,Blackgrass plant response rating,blackgrass; [1],8
same,"Plant response rating, Blackgrass",blackgrass; [2],8
same,"Plant response rating, Blackgrass",blackgrass; [3],8
same,Blackgrass plant response rating,blackgrass; [7],8
same,"Plant response rating, Blackgrass",blackgrass; [4],9
same,Blackgrass plant response rating (0 to 10 scale),"blackgrass; Preemergence, Rate 125 g/ha",10
same,Blackgrass plant response rating,blackgrass; [5],10
same,Blackgrass plant response rating,blackgrass; [6],8
same,Velvetleaf plant response rating,velvetleaf; [1],0
same,"Plant response rating, Velvetleaf",velvetleaf; [2],4
same,"Plant response rating, Velvetleaf",velvetleaf; [3],7
same,"Plant response rating, Velvetleaf",velvetleaf; [4],4
same,Velvetleaf plant response rating (0 to 10 scale),"velvetleaf; Preemergence, Rate 125 g/ha",6
same,Velvetleaf plant response rating,velvetleaf; [5],6
same,Velvetleaf plant response rating,velvetleaf; [6],1
same,B. signalgrass plant response rating,surinam grass; [1],1
same,"Plant response rating, B. signalgrass",surinam grass; [2],5
same,"Plant response rating, B. signalgrass",surinam grass; [3],7
same,B. signalgrass plant response rating,surinam grass; [7],2
same,"Plant response rating, B. signalgrass",surinam grass; [4],4
same,"B. signalgrass plant response rating (0 to 10 scale, 0 is no effect, 10 is complete control)","surinam grass; Preemergence, Rate 125 g/ha",6
same,B. signalgrass plant response rating,surinam grass; [5],7
same,B. signalgrass plant response rating,surinam grass; [6],2
